Reference: patent US7348344B2, “Polysubstituted 1,1-pyridyloxycyclopropanamine compounds” (Les Laboratoires Servier, priority 2005, dated 2008)

Legend:
Wistar rat = test: Social recognition in the Wistar rat; format: in vivo; conditions: 10 mg/kg IP, second encounter after 2 hours
From the text: Initially described in 1982 (J. Comp. Physiol., 1982, 96, 1000-1006), the social recognition test has subsequently been proposed by various authors (Psychopharmacology, 1987, 91, 363-368; Psychopharmacology, 1989, 97, 262-268) for studying the mnemocognitive effects of new compounds. The test is based on the natural expression of the olfactory memory of the rat and its natural tendency to forget and allows evaluation of memorisation, by recognition of a young congeneric animal, by an adult rat. A young rat (21 days), taken at random, is placed for 5 minutes in the cage housing an adult rat. With the aid of a video device, the experimenter observes the social recognition behaviour of the adult rat and measures its overall duration. The young rat is then removed from the adult rat's cage and is placed in its own cage until the second introduction. The adult rat is given the compound under test by the intraperitoneal route and, after 2 hours, is again brought into the presence (5 minutes) of the young rat. The social recognition behaviour is then observed again and its duration measured. The assessment criterion is the difference (T2−T1), expressed in seconds, between the “recognition” times of the 2 encounters.

[1] = molecular target: T1, type α4β2 central nicotinic receptors (Rattus norvegicus, UniProt P09483+P12390); test: Displacement of binding of [3H]-cytisine on type α4β2 nicotinic receptors of rat brain; conditions: rat brain membranes
T1 construct: from tissue; host or cells: rat brain membranes
Procedure: This study, carried out according to the technique described in Molec. Pharmacol., 1990, 39; 9-12, is aimed at determining the affinity of compounds of the present invention for type α4β2 central nicotinic receptors.
Membranes (250 μg/ml) of rat brain are incubated (2 hours, 20° C.) in the presence of a series of concentrations (0.01-10 μM) of each compound of the present invention (diluted starting from a 10 mM stock solution in DMSO) and [^3H]-cytisine (S.A.: 1184 GBq/mmol: 2 nM) in phosphate buffer (NaH2PO4 20 mM, pH 7.4); final volume: 250 μl. The non-specific binding is determined by incubating membranes in the presence of 10 μM of (−)nicotine. The affinity of the compounds of the present invention for type α4β2 central nicotinic receptors is characterised by determination of the Ki.

[2] = test system: release of acetylcholine in the prefrontal cortex; test: In vivo measurement of the release of acetylcholine by intra-cortical microdialysis in the conscious Wistar rat; design: dose or concentration left out as unconfirmed; conditions: one hour after administration
Procedure: The systemic administration of nicotine and nicotinic agonists causes an increase, in vivo, of acetylcholine in various regions of the brain (Neurochem. Res., 1996, 21, 1181-1186; Eur. J. Pharmacol., 1998, 351, 181-188; Br. J. Pharmacol., 1999, 127, 1486-1494). A microdialysis probe is implanted in the median prefrontal cortex of male Wistar rats. Six or seven days after they have been implanted, the probes are perfused with Ringer's solution (NaCl 147 mM, KCl 2.7 mM, CaCl2 1.2 mM, MgCl2 1 mM, neostigmine 20 nM) at a flow rate of 1 μl/min, the animal being free to move. After 2 hours in the animal quarters, the product under test is administered by the intraperitoneal route. A group of control animals receives the solvent used for the product. The dialysates (30 μl) are then collected every 30 minutes for 4 hours in order to measure the cortical extra-synaptic concentrations of acetylcholine by means of HPLC with amperometric detection. The results are expressed in pg of acetylcholine/dialysate, and inter-group comparisons are carried out by means of analysis of variance using 2 factors (treatment×time), with measurements being repeated over time.

NMRI mouse = test: Abdominal contractions induced by phenyl-p-benzoquinone (PBQ) in the NMRI mouse; format: in vivo; conditions: 10 mg/kg IP
Procedure: Intraperitoneal administration of an alcoholic solution of PBQ causes abdominal cramps in the mouse (Proc. Soc. Exp. Biol., 1957, 95, 729-731). The cramps are characterised by repeated contractions of the abdominal musculature, accompanied by extension of the hind limbs. Most analgesics antagonise these abdominal cramps (Brit. J. Pharmacol. Chem., 1968, 32, 295-310). At t=0 min., the animals are weighed and the compound being studied is administered by the IP route. A group of control animals is given the solvent used for the compound. At t=30 min., an alcoholic solution of PBQ (0.2%) is administered by the IP route in a volume of 0.25 ml/mouse. Immediately after administration of the PBQ, the animals are placed in cylinders of plexiglass (L=19.5 cm; I.D.=5 cm). From t=35 min. to t=45 min., the animals' reaction is observed and the experimenter notes the total number of abdominal cramps per animal. The results are expressed as the percentage inhibition of the number of abdominal cramps measured in the control animals, at the active dose of the compound studied.

T1 sequence (P09483 31-630): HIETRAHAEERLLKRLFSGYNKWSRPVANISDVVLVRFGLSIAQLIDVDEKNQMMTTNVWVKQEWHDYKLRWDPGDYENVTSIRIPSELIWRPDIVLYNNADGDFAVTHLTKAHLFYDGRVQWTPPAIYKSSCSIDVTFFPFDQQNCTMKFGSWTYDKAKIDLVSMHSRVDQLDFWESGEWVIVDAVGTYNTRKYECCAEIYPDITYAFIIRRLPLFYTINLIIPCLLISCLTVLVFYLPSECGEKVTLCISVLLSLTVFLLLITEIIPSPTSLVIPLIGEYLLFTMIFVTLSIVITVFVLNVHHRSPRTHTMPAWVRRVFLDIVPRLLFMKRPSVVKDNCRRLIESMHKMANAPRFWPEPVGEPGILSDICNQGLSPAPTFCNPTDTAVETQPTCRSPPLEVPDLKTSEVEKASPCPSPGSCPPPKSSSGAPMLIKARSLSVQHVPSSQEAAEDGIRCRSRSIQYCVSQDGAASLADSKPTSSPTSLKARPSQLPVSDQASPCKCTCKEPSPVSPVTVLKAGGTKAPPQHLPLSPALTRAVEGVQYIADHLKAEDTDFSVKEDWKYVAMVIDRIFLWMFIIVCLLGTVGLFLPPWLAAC
T1 sequence (P12390 25-500): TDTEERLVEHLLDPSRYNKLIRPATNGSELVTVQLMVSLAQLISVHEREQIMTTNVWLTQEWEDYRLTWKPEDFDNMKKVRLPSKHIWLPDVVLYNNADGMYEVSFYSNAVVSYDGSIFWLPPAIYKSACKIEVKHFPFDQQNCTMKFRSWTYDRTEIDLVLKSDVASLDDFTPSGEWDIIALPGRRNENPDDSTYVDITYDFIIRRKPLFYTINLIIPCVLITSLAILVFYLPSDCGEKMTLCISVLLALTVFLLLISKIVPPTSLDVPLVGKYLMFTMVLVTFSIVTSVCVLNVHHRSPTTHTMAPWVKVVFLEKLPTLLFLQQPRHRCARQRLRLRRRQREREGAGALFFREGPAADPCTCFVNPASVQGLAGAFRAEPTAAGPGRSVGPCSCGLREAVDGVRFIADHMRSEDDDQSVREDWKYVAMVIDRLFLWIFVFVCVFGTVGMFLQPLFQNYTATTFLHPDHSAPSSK

| melting point [°C] | SMILES | other results |
| --- | --- | --- |
| < 75 | C[C@H]1C[C@@]1(N)COc1cccnc1.Cl.Cl (single isomer, unassigned) |  |
| 71 to 74 | CN[C@@]1(COc2cccnc2)C[C@H]1C.Cl.Cl (single isomer, unassigned) [21] |  |
| 69 to 72 | CN[C@@]1(COc2cccnc2)C[C@H]1C.Cl.Cl (single isomer, unassigned) [20] |  |
| 124 to 127 | CNC1(COc2cccnc2)CC1(C)C.O=C(O)/C=C/C(=O)O.O=C(O)/C=C/C(=O)O (single isomer, unassigned) [26] |  |
| 136 to 138 | C[C@H]1C[C@]1(COc1ccc(Cl)nc1)N(C)C.Cl (single isomer, unassigned) |  |
| 115 to 118 | CNC1(COc2cccnc2)CC1(C)C.O=C(O)/C=C/C(=O)O.O=C(O)/C=C/C(=O)O (single isomer, unassigned) [Example 27] |  |
|  | C[C@H]1C[C@@]1(N)COc1ccc(Cl)nc1.Cl (single isomer, unassigned) [Example 15, (1S,2S)- or (1R,2R)-(+)-1-{[(6-chloro-3-pyridinyl)oxy]methyl}-2-methylcyclopropanamine Hydrochloride] | reduction of the number of abdominal cramps caused by PBQ (NMRI mouse): −69% |
| 188 to 192 | CN[C@@]1(COc2ccc(Cl)nc2)C[C@@H]1C.Cl (single isomer, unassigned) [12] |  |
| 185 to 190 | CN[C@@]1(COc2ccc(Cl)nc2)C[C@@H]1C.Cl (single isomer, unassigned) [11] |  |

| SMILES | melting point [°C] | other results |
| --- | --- | --- |
| C[C@H]1C[C@@]1(N)COc1ccc(Cl)nc1.Cl (single isomer, unassigned) | 183 to 186 |  |
| CN[C@@]1(COc2cccnc2)C[C@@H]1C.Cl.Cl (single isomer, unassigned) [Example 2, (1S,2S)- or (1R,2R)-(−)-N,2-dimethyl-1-[(3-pyridinyloxy)methyl]cyclopropanamine Dihydrochloride] | 174 to 176 | difference (T2−T1) between recognition times (Wistar rat): 38 s; Ki [1]: 69 nM; increase in the release of acetylcholine in the prefrontal cortex [2]: +86% |
